Assay results: patent publication US12371454B2, “Cyclic peptide compound having Kras inhibitory action” (priority 2019, dated 2025)
Starred links: 1 amine or outer side, 2 acyl side, 3 side chain; linkers in the order of their positions; H or OH if unused. Positions of bridges follow the written chain, without caps; N, C: chain ends. Non-standard residues stand in square brackets, D forms with d. Residues, ends and D or L forms follow the SMILES beside them. *: point of attachment. hPhe(3-Cl-4-CF3) = N[C@@H](CCc1ccc(C(F)(F)F)c(Cl)c1)C(=O)O; hPhe(4-CF3) = N[C@@H](CCc1ccc(C(F)(F)F)cc1)C(=O)O; NMePhe(3,4-F2) = CN[C@@H](Cc1ccc(F)c(F)c1)C(=O)O; X17 = Cc1cncc(C[C@@H](C(=O)[*:2])N(C)[*:1])c1; NMePhe(4-Cl) = CN[C@@H](Cc1ccc(Cl)cc1)C(=O)O; NMePhe(4-Me) = CN[C@@H](Cc1ccc(C)cc1)C(=O)O; NMePhe(3-F) = CN[C@@H](Cc1cccc(F)c1)C(=O)O; Oic = O=C(O)[C@@H]1C[C@@H]2CCCC[C@@H]2N1; NMeGly(cPent) = CN[C@H](C(=O)O)C1CCCC1; NMeCha = CN[C@@H](CC1CCCCC1)C(=O)O; NMeChg = CN[C@H](C(=O)O)C1CCCCC1; NMeI = CC[C@H](C)[C@H](NC)C(=O)O; dNMeF = CN[C@H](Cc1ccccc1)C(=O)O; N(CH2CH2)2CF2 = FC1(F)CCN(*)CC1; NMeD = CN[C@@H](CC(=O)O)C(=O)O; NMeL = CN[C@@H](CC(C)C)C(=O)O; NMeV = CN[C@H](C(=O)O)C(C)C; d(β3hA) = C[C@@H](N)CC(=O)O; NMeS = CN[C@@H](CO)C(=O)O; NMeA = CN[C@@H](C)C(=O)O; Piperidide = C1CCN(*)CC1; Pyrrolidide = C1CCN(*)C1; Ac5c = NC1(C(=O)O)CCCC1; Aze = O=C(O)[C@@H]1CCN1; Abu = CC[C@H](N)C(=O)O; Aib = CC(C)(N)C(=O)O; Sar = CNCC(=O)O

biological target: T1, Kras and SOS1 (biotin-tagged human Kras loaded with GDP, His-tagged human SOS1) (Homo sapiens, UniProt P01116, G12D); assay: Protein-protein interaction inhibition between Kras and SOS1 (KrasGl2D-SOS PPI) using AlphaScreen; format: binding; details: AlphaScreen; biotin-tagged human Kras loaded with GDP, His-tagged human SOS1; read-out: KRAS G12D-SOS PPI IC50
T1 construct: made in house; host or cells: E. coli (stated for Kras only)
T1 sequence (P01116 1-188 isoform P01116-2 G12D): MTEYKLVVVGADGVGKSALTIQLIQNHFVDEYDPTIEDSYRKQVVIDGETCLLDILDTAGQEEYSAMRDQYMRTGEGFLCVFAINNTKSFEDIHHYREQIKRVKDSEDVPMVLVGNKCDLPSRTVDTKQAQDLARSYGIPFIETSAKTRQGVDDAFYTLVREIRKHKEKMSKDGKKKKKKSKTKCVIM
Experimental: Protein-Protein Interaction Inhibition Between Kras and SOS1 (KrasGl2D-SOS PPI) Using AlphaScreen
Protein-protein interaction inhibition (PPI) between Kras and SOS1 was measured by energy transfer from nickel-conjugated donor beads to streptavidin-conjugated acceptor beads using biotin-tagged human Kras expressed in E. coli and loaded with GDP after purification and His-tagged human SOS1 enzyme. This measurement utilizes the phenomenon in which donor beads are irradiated with light at 680 nm, such that energy is transferred to acceptor beads through singlet oxygen and light at 520-620 nm is detected from the acceptor beads.
Inhibition of binding between K-ras and SOS1 is known to inhibit signaling downstream of Kras.

Question: For `CC[C@H](C)[C@@H]1NC(=O)[C@H](C)N(C)C(=O)C[C@@H](C(=O)N2CCCCC2)N(C)C(=O)[C@H](C(C)C)N(C)C(=O)C2(CCCC2)NC(=O)[C@H](Cc2cccc(F)c2)N(C)C(=O)[C@H](CCc2ccc(C(F)(F)F)c(Cl)c2)NC(=O)CN(C)C(=O)[C@H](CC2CCCCC2)N(C)C(=O)CN(C)C(=O)CN(C)C1=O` [Compound 945] ([NMeA]I[Sar][Sar][NMeCha][Sar][hPhe(3-Cl-4-CF3)][NMePhe(3-F)][Ac5c][NMeV][NMeD]-Piperidide; lactam N-11), which IC50 is on record?
Answer: 9.8 nM

Question: Which IC50 does the source give for `CC[C@H](C)[C@@H]1NC(=O)[C@H](CC(C)C)N(C)C(=O)C[C@@H](C(=O)N2CCCCC2)N(C)C(=O)[C@H](C2CCCCC2)N(C)C(=O)C2(CCCC2)NC(=O)[C@H](Cc2cncc(C)c2)N(C)C(=O)[C@H](CCc2ccc(C(F)(F)F)c(Cl)c2)NC(=O)CN(C)C(=O)[C@H](CC2CCCCC2)N(C)C(=O)[C@@H]2CCN2C(=O)CN(C)C1=O` [Compound 477] ([NMeL]I[Sar][Aze][NMeCha][Sar][hPhe(3-Cl-4-CF3)][X17][Ac5c][NMeChg][NMeD]-Piperidide; lactam N-11) here?
Answer: 4.3 nM

Question: Which IC50 does the source give for `CC[C@H](C)[C@@H]1NC(=O)[C@H](CC(C)C)N(C)C(=O)C[C@@H](C(=O)N2CCCCC2)N(C)C(=O)[C@H](C2CCCCC2)N(C)C(=O)C2(CCCC2)NC(=O)[C@@H]2CCCN2C(=O)[C@H](CCc2ccc(C(F)(F)F)c(Cl)c2)NC(=O)CN(C)C(=O)[C@H](CO)N(C)C(=O)CN(C)C(=O)CN(C)C1=O` [Compound 1687] ([NMeL]I[Sar][Sar][NMeS][Sar][hPhe(3-Cl-4-CF3)]P[Ac5c][NMeChg][NMeD]-Piperidide; lactam N-11) here?
Answer: 4.2 nM

Question: `CC[C@H](C)[C@@H]1NC(=O)[C@H](CC(C)C)N(C)C(=O)C[C@@H](C(=O)N(C)C)N(C)C(=O)[C@H]([C@@H](C)CC)N(C)C(=O)C2(CCCC2)NC(=O)[C@@H](Cc2ccccc2)N(C)C(=O)[C@H](CCc2ccc(C(F)(F)F)c(Cl)c2)NC(=O)CN(C)C(=O)[C@H](Cc2ccc(C)cc2)N(C)C(=O)[C@@H]2CCN2C(=O)[C@H](C)N(C)C1=O` [Compound 1909] ([NMeL]I[NMeA][Aze][NMePhe(4-Me)][Sar][hPhe(3-Cl-4-CF3)][dNMeF][Ac5c][NMeI][NMeD]-NMe2; lactam N-11) was tested. Which IC50 did it give?
Answer: 110 nM

Question: With `CC[C@H](C)[C@@H]1NC(=O)[C@H](CC(C)C)N(C)C(=O)C[C@@H](C(=O)N2CCCC2)N(C)C(=O)[C@H](C2CCCC2)N(C)C(=O)C2(CCCC2)NC(=O)[C@H](CC(=O)N2CCC(F)(F)CC2)N(C)C(=O)[C@H](CCc2ccc(C(F)(F)F)c(Cl)c2)NC(=O)CN(C)C(=O)[C@H](CC2CCCCC2)N(C)C(=O)[C@@H]2CCN2C(=O)[C@H](C)N(C)C1=O` [Compound 26] ([NMeL]I[NMeA][Aze][NMeCha][Sar][hPhe(3-Cl-4-CF3)][NMeD](N(CH2CH2)2CF2)[Ac5c][NMeGly(cPent)][NMeD]-Pyrrolidide; lactam N-11) as the compound, how does the IC50 read?
Answer: 4.3 nM

Question: `CC[C@H](C)[C@@H]1NC(=O)[C@H](CC(C)C)N(C)C(=O)C[C@@H](C(=O)N(C)C)N(C)C(=O)[C@H]([C@@H](C)CC)N(C)C(=O)C2(CCCC2)NC(=O)[C@H](Cc2ccc(F)c(F)c2)N(C)C(=O)[C@H](CCc2ccc(C(F)(F)F)c(Cl)c2)NC(=O)CN(C)C(=O)[C@H](Cc2ccc(C)cc2)N(C)C(=O)[C@@H]2CCN2C(=O)[C@H](C)N(C)C1=O` [Compound 1943] ([NMeL]I[NMeA][Aze][NMePhe(4-Me)][Sar][hPhe(3-Cl-4-CF3)][NMePhe(3,4-F2)][Ac5c][NMeI][NMeD]-NMe2; lactam N-11) was tested. Which IC50 did it give?
Answer: 8 nM

Question: For `CC[C@H](C)[C@@H]1NC(=O)[C@H](C)N(C)C(=O)C[C@@H](C)NC(=O)[C@H](CC(C)C)N(C)C(=O)C(C)(C)NC(=O)[C@@H]2C[C@@H]3CCCC[C@@H]3N2C(=O)[C@H](CCc2ccc(C(F)(F)F)cc2)NC(=O)CN(C)C(=O)[C@H](Cc2ccc(Cl)cc2)N(C)C(=O)CN(C)C(=O)CN(C)C1=O` [Compound 521] (cyclo([Aib][NMeL][d(β3hA)][NMeA]I[Sar][Sar][NMePhe(4-Cl)][Sar][hPhe(4-CF3)][Oic])), which IC50 is on record?
Answer: 71 nM

Question: For `CC[C@@H]1NC(=O)[C@H]([C@@H](C)CC)NC(=O)[C@H](CC(C)C)N(C)C(=O)C[C@@H](C)NC(=O)[C@H](C(C)C)N(C)C(=O)C2(CCCC2)NC(=O)[C@@H]2CCCN2C(=O)[C@H](CCc2ccc(C(F)(F)F)c(Cl)c2)NC(=O)CN(C)C(=O)[C@H](CC2CCCCC2)N(C)C(=O)CN(C)C1=O` [Compound 1459] (cyclo([Abu][Sar][NMeCha][Sar][hPhe(3-Cl-4-CF3)]P[Ac5c][NMeV][d(β3hA)][NMeL]I)), which IC50 is on record?
Answer: 290 nM

Question: For `CC[C@H](C)[C@@H]1NC(=O)[C@H](CC(C)C)N(C)C(=O)C[C@@H](C(=O)N2CCCCC2)N(C)C(=O)[C@H](C(C)C)N(C)C(=O)[C@@H](C)NC(=O)[C@H](CC(=O)N2CCC(F)(F)CC2)N(C)C(=O)[C@H](CCc2ccc(C(F)(F)F)c(Cl)c2)NC(=O)CN(C)C(=O)[C@H](CC2CCCCC2)N(C)C(=O)CN(C)C(=O)CN(C)C1=O` [Compound 493] ([NMeL]I[Sar][Sar][NMeCha][Sar][hPhe(3-Cl-4-CF3)][NMeD](N(CH2CH2)2CF2)[dA][NMeV][NMeD]-Piperidide; lactam N-11), which IC50 is on record?
Answer: 300 nM
